From PMC7156458, “Synthetic biology based construction of biological activity-related library of fungal decalin-containing diterpenoid pyrones” (Nature Communications, 2020)

Molecular target: Aβ42 (Homo sapiens, UniProt P05067)
Assay: Th-T (thioflavin-T) assay of Aβ42 aggregation
Format: biochemical
Conditions: for Th-T fluorescence, mean of three wells: compound at 50

Chain of Aβ42 (P05067 672-713): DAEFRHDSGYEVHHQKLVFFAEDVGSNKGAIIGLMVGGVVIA

## C=C1CC[C@@H]2[C@](C)(CC[C@H]3O[C@H](C=C(C)C)C[C@@]23C)[C@@H]1Cc1c(OC)oc(CO)c(C)c1=O [Compound 20]
Reading M54 of time course
  Th-T fluorescence, mean of three wells: 2.134
Reading M55 of time course
  Th-T fluorescence, mean of three wells: 2.09
Reading M56 of time course
  Th-T fluorescence, mean of three wells: 2.129
Reading M57 of time course
  Th-T fluorescence, mean of three wells: 2.102
Reading M58 of time course
  Th-T fluorescence, mean of three wells: 2.115
Reading M59 of time course
  Th-T fluorescence, mean of three wells: 2.0923
Reading M60 of time course
  Th-T fluorescence, mean of three wells: 2.089
Reading M61 of time course
  Th-T fluorescence, mean of three wells: 2.104
Reading M62 of time course
  Th-T fluorescence, mean of three wells: 2.094
Concentration 10, unit not given, time-course reading M129
  Th-T fluorescence of Aβ42 with compound, mean of three wells (Fig. 7a source data): 3.179
Concentration 10, unit not given, time-course reading M130
  Th-T fluorescence of Aβ42 with compound, mean of three wells (Fig. 7a source data): 3.204
Concentration 10, unit not given, time-course reading M131
  Th-T fluorescence of Aβ42 with compound, mean of three wells (Fig. 7a source data): 3.189
Concentration 10, unit not given, time-course reading M132
  Th-T fluorescence of Aβ42 with compound, mean of three wells (Fig. 7a source data): 3.188
Concentration 10, unit not given, time-course reading M133
  Th-T fluorescence of Aβ42 with compound, mean of three wells (Fig. 7a source data): 3.166
Concentration 10, unit not given, time-course reading M134
  Th-T fluorescence of Aβ42 with compound, mean of three wells (Fig. 7a source data): 3.1894
Concentration 10, unit not given, time-course reading M135
  Th-T fluorescence of Aβ42 with compound, mean of three wells (Fig. 7a source data): 3.162
Concentration 10, unit not given, time-course reading M136
  Th-T fluorescence of Aβ42 with compound, mean of three wells (Fig. 7a source data): 3.159
Concentration 10, unit not given, time-course reading M137
  Th-T fluorescence of Aβ42 with compound, mean of three wells (Fig. 7a source data): 3.15
Concentration 10, unit not given, time-course reading M138
  Th-T fluorescence of Aβ42 with compound, mean of three wells (Fig. 7a source data): 3.16
Concentration 10, unit not given, time-course reading M139
  Th-T fluorescence of Aβ42 with compound, mean of three wells (Fig. 7a source data): 3.169
Concentration 10, unit not given, time-course reading M140
  Th-T fluorescence of Aβ42 with compound, mean of three wells (Fig. 7a source data): 3.158
Concentration 10, unit not given, time-course reading M141
  Th-T fluorescence of Aβ42 with compound, mean of three wells (Fig. 7a source data): 3.147
Concentration 10, unit not given, time-course reading M142
  Th-T fluorescence of Aβ42 with compound, mean of three wells (Fig. 7a source data): 3.131
Concentration 10, unit not given, time-course reading M143
  Th-T fluorescence of Aβ42 with compound, mean of three wells (Fig. 7a source data): 3.135
Concentration 10, unit not given, time-course reading M144
  Th-T fluorescence of Aβ42 with compound, mean of three wells (Fig. 7a source data): 3.139
Concentration 10, unit not given, time-course reading M145
  Th-T fluorescence of Aβ42 with compound, mean of three wells (Fig. 7a source data): 3.1201
Concentration 20, unit not given, time-course reading M129
  Th-T fluorescence of Aβ42 with compound, mean of three wells (Fig. 7a source data): 3.1
Concentration 20, unit not given, time-course reading M130
  Th-T fluorescence of Aβ42 with compound, mean of three wells (Fig. 7a source data): 3.095
Concentration 20, unit not given, time-course reading M131
  Th-T fluorescence of Aβ42 with compound, mean of three wells (Fig. 7a source data): 3.098
Concentration 20, unit not given, time-course reading M132
  Th-T fluorescence of Aβ42 with compound, mean of three wells (Fig. 7a source data): 3.079
Concentration 20, unit not given, time-course reading M133
  Th-T fluorescence of Aβ42 with compound, mean of three wells (Fig. 7a source data): 3.072
Concentration 20, unit not given, time-course reading M134
  Th-T fluorescence of Aβ42 with compound, mean of three wells (Fig. 7a source data): 3.073
Concentration 20, unit not given, time-course reading M135
  Th-T fluorescence of Aβ42 with compound, mean of three wells (Fig. 7a source data): 3.076
Concentration 20, unit not given, time-course reading M136
  Th-T fluorescence of Aβ42 with compound, mean of three wells (Fig. 7a source data): 3.0605
Concentration 20, unit not given, time-course reading M137
  Th-T fluorescence of Aβ42 with compound, mean of three wells (Fig. 7a source data): 3.049
Concentration 20, unit not given, time-course reading M138
  Th-T fluorescence of Aβ42 with compound, mean of three wells (Fig. 7a source data): 3.042
Concentration 20, unit not given, time-course reading M139
  Th-T fluorescence of Aβ42 with compound, mean of three wells (Fig. 7a source data): 3.041
Concentration 20, unit not given, time-course reading M140
  Th-T fluorescence of Aβ42 with compound, mean of three wells (Fig. 7a source data): 3.025
Concentration 20, unit not given, time-course reading M141
  Th-T fluorescence of Aβ42 with compound, mean of three wells (Fig. 7a source data): 3.02
Concentration 20, unit not given, time-course reading M142
  Th-T fluorescence of Aβ42 with compound, mean of three wells (Fig. 7a source data): 3.019
Concentration 20, unit not given, time-course reading M143
  Th-T fluorescence of Aβ42 with compound, mean of three wells (Fig. 7a source data): 3.013
Concentration 20, unit not given, time-course reading M144
  Th-T fluorescence of Aβ42 with compound, mean of three wells (Fig. 7a source data): 3.009
Concentration 20, unit not given, time-course reading M145
  Th-T fluorescence of Aβ42 with compound, mean of three wells (Fig. 7a source data): 2.993
Concentration 50, unit not given, time-course reading M129
  Th-T fluorescence of Aβ42 with compound, mean of three wells (Fig. 7a source data): 2.106
Concentration 50, unit not given, time-course reading M130
  Th-T fluorescence of Aβ42 with compound, mean of three wells (Fig. 7a source data): 2.116
Concentration 50, unit not given, time-course reading M131
  Th-T fluorescence of Aβ42 with compound, mean of three wells (Fig. 7a source data): 2.114
Concentration 50, unit not given, time-course reading M132
  Th-T fluorescence of Aβ42 with compound, mean of three wells (Fig. 7a source data): 2.119
Concentration 50, unit not given, time-course reading M133
  Th-T fluorescence of Aβ42 with compound, mean of three wells (Fig. 7a source data): 2.114
Concentration 50, unit not given, time-course reading M134
  Th-T fluorescence of Aβ42 with compound, mean of three wells (Fig. 7a source data): 2.123
Concentration 50, unit not given, time-course reading M135
  Th-T fluorescence of Aβ42 with compound, mean of three wells (Fig. 7a source data): 2.118
Concentration 50, unit not given, time-course reading M136
  Th-T fluorescence of Aβ42 with compound, mean of three wells (Fig. 7a source data): 2.117
Concentration 50, unit not given, time-course reading M137
  Th-T fluorescence of Aβ42 with compound, mean of three wells (Fig. 7a source data): 2.122
Concentration 50, unit not given, time-course reading M138
  Th-T fluorescence of Aβ42 with compound, mean of three wells (Fig. 7a source data): 2.119
Concentration 50, unit not given, time-course reading M139
  Th-T fluorescence of Aβ42 with compound, mean of three wells (Fig. 7a source data): 2.116
Concentration 50, unit not given, time-course reading M140
  Th-T fluorescence of Aβ42 with compound, mean of three wells (Fig. 7a source data): 2.117
Concentration 50, unit not given, time-course reading M141
  Th-T fluorescence of Aβ42 with compound, mean of three wells (Fig. 7a source data): 2.123
Concentration 50, unit not given, time-course reading M142
  Th-T fluorescence of Aβ42 with compound, mean of three wells (Fig. 7a source data): 2.118
